From publication PMC9239997, “Structural basis for mitoguardin-2 mediated lipid transport at ER-mitochondrial membrane contact sites” (Nature Communications, 2022)
[ ]: non-standard residue; d: D form. pS = N[C@@H](COP(=O)(O)O)C(=O)O

Experiments:
zMiga2 [1] = molecular target: T1, zMiga2 (Danio rerio, UniProt Q5BLE2, V430W); experiment: Clear Native-PAGE, NBD fluorescence; format: binding; details: labelled compound; pH 7.5, on ice, 2 h
T1 construct: gene miga2; LD targeting domain, residues 310-568; E. coli BL21(DE3); His6 tag cleaved by TEV
T1 sequence (Q5BLE2 310-568 V430W): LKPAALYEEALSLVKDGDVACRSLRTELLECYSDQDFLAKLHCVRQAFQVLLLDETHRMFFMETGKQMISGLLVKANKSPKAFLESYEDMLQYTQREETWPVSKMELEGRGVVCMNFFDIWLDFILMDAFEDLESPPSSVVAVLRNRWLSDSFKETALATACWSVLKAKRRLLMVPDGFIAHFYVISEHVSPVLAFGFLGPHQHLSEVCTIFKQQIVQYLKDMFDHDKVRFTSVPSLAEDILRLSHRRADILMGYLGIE

zMiga2 [2] = molecular target: T2, zMiga2 (Danio rerio, UniProt Q5BLE2, W409A); experiment: Clear Native-PAGE, NBD fluorescence; format: binding; details: labelled compound; pH 7.5, on ice, 2 h
T2 construct: gene miga2; LD targeting domain, residues 310-568; E. coli BL21(DE3); His6 tag cleaved by TEV
T2 sequence (Q5BLE2 310-568 W409A): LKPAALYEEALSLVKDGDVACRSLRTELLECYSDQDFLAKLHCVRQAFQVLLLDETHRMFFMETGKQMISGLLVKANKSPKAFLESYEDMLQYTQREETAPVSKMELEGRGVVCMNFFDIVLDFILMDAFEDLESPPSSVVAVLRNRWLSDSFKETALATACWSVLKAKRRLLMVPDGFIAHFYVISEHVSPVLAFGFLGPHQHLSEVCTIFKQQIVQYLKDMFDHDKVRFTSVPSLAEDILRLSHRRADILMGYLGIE

zMiga2 [3] = molecular target: T3, zMiga2 (Danio rerio, UniProt Q5BLE2); experiment: Clear Native-PAGE, NBD fluorescence; format: binding; details: labelled compound; pH 7.5, on ice, 2 h; hydrophobic cavity
T3 construct: gene miga2; LD targeting domain, residues 310-568; E. coli BL21(DE3); His6 tag cleaved by TEV
T3 sequence (Q5BLE2 310-568): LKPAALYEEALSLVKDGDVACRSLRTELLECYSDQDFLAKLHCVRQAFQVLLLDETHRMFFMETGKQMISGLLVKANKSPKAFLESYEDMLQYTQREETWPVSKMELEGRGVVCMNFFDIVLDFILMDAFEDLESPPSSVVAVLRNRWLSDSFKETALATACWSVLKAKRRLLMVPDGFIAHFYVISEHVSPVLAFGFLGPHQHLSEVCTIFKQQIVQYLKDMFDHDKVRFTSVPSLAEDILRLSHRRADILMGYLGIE

zMiga2 [4] = molecular target: T4, zMiga2 (Danio rerio, UniProt Q5BLE2, F488W); experiment: Clear Native-PAGE, NBD fluorescence; format: binding; details: labelled compound; pH 7.5, on ice, 2 h
T4 construct: gene miga2; LD targeting domain, residues 310-568; E. coli BL21(DE3); His6 tag cleaved by TEV
T4 sequence (Q5BLE2 310-568 F488W): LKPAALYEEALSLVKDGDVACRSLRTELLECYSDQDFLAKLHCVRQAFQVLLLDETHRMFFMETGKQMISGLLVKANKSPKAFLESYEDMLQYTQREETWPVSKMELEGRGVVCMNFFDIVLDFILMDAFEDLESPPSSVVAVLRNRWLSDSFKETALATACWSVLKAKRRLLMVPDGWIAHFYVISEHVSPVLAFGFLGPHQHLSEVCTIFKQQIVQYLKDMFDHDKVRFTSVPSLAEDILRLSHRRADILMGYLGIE

mMIGA1^313–573 = molecular target: T5, mMIGA1^313–573 (Mus musculus, UniProt Q4QQM5); experiment: Clear Native-PAGE, NBD fluorescence; format: binding; details: labelled compound; pH 7.5, on ice, 2 h
T5 construct: gene Miga1; LD targeting domain, residues 313-573; E. coli; His6 tag cleaved by TEV
T5 sequence (Q4QQM5 313-573): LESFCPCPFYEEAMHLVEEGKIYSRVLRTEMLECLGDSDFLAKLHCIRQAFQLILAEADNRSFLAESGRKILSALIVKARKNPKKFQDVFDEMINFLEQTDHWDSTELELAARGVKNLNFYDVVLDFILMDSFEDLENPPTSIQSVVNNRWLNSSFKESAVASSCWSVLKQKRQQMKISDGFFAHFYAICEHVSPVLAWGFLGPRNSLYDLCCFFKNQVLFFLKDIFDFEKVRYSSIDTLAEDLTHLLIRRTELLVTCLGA

zMiga2 [5] = molecular target: T6, zMiga2 (Danio rerio, UniProt Q5BLE2, V430W/F488W); experiment: Clear Native-PAGE, NBD fluorescence; format: binding; details: labelled compound; pH 7.5, on ice, 2 h
T6 construct: gene miga2; LD targeting domain, residues 310-568; E. coli BL21(DE3); His6 tag cleaved by TEV
T6 sequence (Q5BLE2 310-568 V430W/F488W): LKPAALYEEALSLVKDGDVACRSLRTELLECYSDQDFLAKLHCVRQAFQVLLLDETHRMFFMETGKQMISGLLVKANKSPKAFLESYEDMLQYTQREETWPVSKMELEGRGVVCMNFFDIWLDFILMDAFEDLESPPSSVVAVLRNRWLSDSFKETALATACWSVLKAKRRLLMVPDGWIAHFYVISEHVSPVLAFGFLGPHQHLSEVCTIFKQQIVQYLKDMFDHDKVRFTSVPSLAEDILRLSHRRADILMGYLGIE

zMiga2-GST = molecular target: T7, zMiga2-GST (Danio rerio, UniProt Q5BLE2); experiment: preloading, glutathione bead wash, Clear Native-PAGE fluorescence; format: binding; details: labelled compound; probe of the displacement assay
T7 construct: gene miga2; LD targeting domain, residues 310-568, C-terminal GST fusion kept; E. coli
T7 sequence (Q5BLE2 310-568): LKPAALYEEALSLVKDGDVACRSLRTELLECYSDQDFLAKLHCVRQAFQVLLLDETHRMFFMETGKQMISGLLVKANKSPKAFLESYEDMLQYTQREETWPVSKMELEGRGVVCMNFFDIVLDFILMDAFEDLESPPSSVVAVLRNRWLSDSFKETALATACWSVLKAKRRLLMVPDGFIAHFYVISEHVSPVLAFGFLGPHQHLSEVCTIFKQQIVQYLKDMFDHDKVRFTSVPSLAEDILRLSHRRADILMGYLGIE

[6] = molecular target: T8, MSP domain of mouse VAPB (residues 1-125) (mouse (Mus musculus), UniProt Q9QY76 1-125); experiment: ITC; Microcal ITC200, 25 °C, buffer C (25 mM Tris-HCl pH 7.5, 150 mM NaCl, 4 mM β-mercaptoethanol); 20 injections of 2 μl; 1:1 binding model; details: both partners purified
T8 construct: vesicle-associated membrane protein-associated protein B/C (VAPB), mouse, MSP domain, residues 1-125; In the liposome clustering (DLS) and tethered lipid transfer assays a His-tagged form (His-mVAPB) was used; also called mVAPB; wild-type mVAPB
T8 sequence (Q9QY76 1-125): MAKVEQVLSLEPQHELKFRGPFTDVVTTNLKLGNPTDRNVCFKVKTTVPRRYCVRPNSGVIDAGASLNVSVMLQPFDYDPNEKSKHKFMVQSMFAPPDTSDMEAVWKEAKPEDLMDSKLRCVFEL

[7] = molecular target: T9, MSP domain of mouse VAPB (residues 1-125), K43L/K45L (mouse (Mus musculus), UniProt Q9QY76 1-125, K43L | K45L); experiment: as above; details: both partners purified
T9 construct: vesicle-associated membrane protein-associated protein B/C (VAPB), mouse, MSP domain, residues 1-125, K43L/K45L; also called mVAPB K43L/K45L
T9 sequence (Q9QY76 1-125 K43L/K45L): as the sequence (Q9QY76 1-125) above, with K43L, K45L counted along it

[8] = molecular target: T10, MSP domain of mouse VAPB (residues 1-125), K87L/K118L (mouse (Mus musculus), UniProt Q9QY76 1-125, K87L | K118L); experiment: as above; details: both partners purified
T10 construct: vesicle-associated membrane protein-associated protein B/C (VAPB), mouse, MSP domain, residues 1-125, K87L/K118L; also called mVAPB K87L/K118L
T10 sequence (Q9QY76 1-125 K87L/K118L): as the sequence (Q9QY76 1-125) above, with K87L, K118L counted along it

Which “lipid binding relative to WT” value (zMiga2 [1]) does the source give for `CCCCCCCC/C=C\CCCCCCCC(=O)OC[C@H](COP(=O)(O)OCCNc1ccc([N+](=O)[O-])c2nonc12)OC(=O)CCCCCCC/C=C\CCCCCCCC` [NBD-PE, 1,2-dioleoyl-sn-glycero-3-phosphoethanolamine-N-(7-nitro-2-1,3-benzoxadiazol-4-yl)] here?
The value was “the V430W or F488W single mutant showed a slight decrease in NBD-PE binding”.

And the “NBD-PE binding relative to WT” value (zMiga2 [2])?
Its value is ~ 2 fold.

And the “Clear Native-PAGE, NBD fluorescence” value (zMiga2 [3])?
Its value is “explored the ability of the mutant proteins to interact with NBD-PE”.

And the “lipid binding relative to WT” value (zMiga2 [4])?
The value was “the V430W or F488W single mutant showed a slight decrease in NBD-PE binding”.

What about the “Clear Native-PAGE, NBD fluorescence” value (mMIGA1^313–573) of the same molecule?
The value was “NBD-PE binding by MIGA1 was markedly lower than that by MIGA2”.

What about the “lipid binding relative to WT” value (zMiga2 [5]) of the same molecule?
The value was “double mutant showed decreased lipid-binding that was less than half of that of the wild type”.

With `CCCCCCCCCCCCCCCC(=O)OC[C@H](COP(=O)([O-])OCC[N+](C)(C)C)OC(=O)CCCCCCCCCCCNc1ccc([N+](=O)[O-])c2nonc12` [NBD-PC, 1-palmitoyl-2-{12-[(7-nitro-2-1,3-benzoxadiazol-4-yl)amino]dodecanoyl}-sn-glycero-3-phosphocholine] as the molecule, how does the “preloading, glutathione bead wash, Clear Native-PAGE fluorescence” value (zMiga2-GST) read?
Its value is “The NBD-PC bound zMiga2 was incubated with natural lipids across a range of concentrations”.

B1: phosphorylated FFAT motif peptide of mouse MIGA2 (residues 289-298) (peptide)
peptide: Ac-SED[pS]FF[pS]ATE-NH2
SMILES: CC(=O)N[C@@H](CO)C(=O)N[C@@H](CCC(=O)O)C(=O)N[C@@H](CC(=O)O)C(=O)N[C@@H](COP(=O)(O)O)C(=O)N[C@@H](Cc1ccccc1)C(=O)N[C@@H](Cc1ccccc1)C(=O)N[C@@H](COP(=O)(O)O)C(=O)N[C@@H](C)C(=O)N[C@H](C(=O)N[C@@H](CCC(=O)O)C(N)=O)[C@@H](C)O
notes: also called mMIGA2^pFFAT; phosphorylated FFAT peptide; source: synthetic peptide, purified by HPLC
Which results are given for B1?
Kd [6]: 1700 ± 200 nM; fold lower binding affinity than wild type mVAPB [7]: 5 fold; fold lower binding affinity than wild type mVAPB [8]: 3 fold
